Read-outs that look alike come from different tables or passages of the source. One block for each molecule: values may come before it.
Key:
Assay in all cases: Ambit kinase profiling, competition binding
[1] = target: T1, ACVR1B (Homo sapiens, UniProt P36896)
T1 construct: purchased Ambit Biosciences (KINOMEscan)
T1 sequence (P36896 24-505): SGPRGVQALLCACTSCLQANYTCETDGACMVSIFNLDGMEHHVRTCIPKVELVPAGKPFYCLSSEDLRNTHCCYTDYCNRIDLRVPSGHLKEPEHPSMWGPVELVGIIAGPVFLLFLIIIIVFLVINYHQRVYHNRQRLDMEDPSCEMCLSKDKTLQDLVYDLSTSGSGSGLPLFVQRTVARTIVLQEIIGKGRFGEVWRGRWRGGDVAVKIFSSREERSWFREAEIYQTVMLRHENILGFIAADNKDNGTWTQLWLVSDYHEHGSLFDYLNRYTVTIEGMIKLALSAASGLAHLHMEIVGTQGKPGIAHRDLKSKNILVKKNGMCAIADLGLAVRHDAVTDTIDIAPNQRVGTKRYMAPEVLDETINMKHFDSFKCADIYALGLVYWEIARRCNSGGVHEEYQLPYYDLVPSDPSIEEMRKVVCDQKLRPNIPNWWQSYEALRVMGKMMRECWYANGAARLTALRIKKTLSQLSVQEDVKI
Experimental: (§1) Also included in the kinase profile are four isoforms of PKC (δ, ε, η, θ) and eight isoforms of CAMKs (CAMKIα, δ, γ; CAMKIIα, β, δ, γ; CAMK4).
(§2) The global kinase profiling experiment was performed by Ambit Biosciences.

[2] = target: T2, ADCK3 (Homo sapiens, UniProt Q8NI60)
T2 construct: purchased Ambit Biosciences (KINOMEscan)
T2 sequence (Q8NI60 163-647): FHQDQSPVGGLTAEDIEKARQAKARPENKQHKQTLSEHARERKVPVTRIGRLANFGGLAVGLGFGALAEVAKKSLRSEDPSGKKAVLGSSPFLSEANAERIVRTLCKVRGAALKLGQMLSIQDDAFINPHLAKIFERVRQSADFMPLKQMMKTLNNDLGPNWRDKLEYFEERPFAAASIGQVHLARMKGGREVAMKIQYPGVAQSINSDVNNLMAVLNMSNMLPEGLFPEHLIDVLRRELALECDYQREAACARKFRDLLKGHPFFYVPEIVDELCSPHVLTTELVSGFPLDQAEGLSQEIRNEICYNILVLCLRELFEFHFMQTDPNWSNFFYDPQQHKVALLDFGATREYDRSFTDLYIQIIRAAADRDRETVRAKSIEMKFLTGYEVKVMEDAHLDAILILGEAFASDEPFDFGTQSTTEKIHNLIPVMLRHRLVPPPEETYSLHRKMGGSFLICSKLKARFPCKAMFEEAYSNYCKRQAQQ
Experimental: as §1, §2

[3] = target: T3, BRAF (Homo sapiens, UniProt P15056)
T3 construct: purchased Ambit Biosciences (KINOMEscan)
T3 sequence (P15056 whole entry): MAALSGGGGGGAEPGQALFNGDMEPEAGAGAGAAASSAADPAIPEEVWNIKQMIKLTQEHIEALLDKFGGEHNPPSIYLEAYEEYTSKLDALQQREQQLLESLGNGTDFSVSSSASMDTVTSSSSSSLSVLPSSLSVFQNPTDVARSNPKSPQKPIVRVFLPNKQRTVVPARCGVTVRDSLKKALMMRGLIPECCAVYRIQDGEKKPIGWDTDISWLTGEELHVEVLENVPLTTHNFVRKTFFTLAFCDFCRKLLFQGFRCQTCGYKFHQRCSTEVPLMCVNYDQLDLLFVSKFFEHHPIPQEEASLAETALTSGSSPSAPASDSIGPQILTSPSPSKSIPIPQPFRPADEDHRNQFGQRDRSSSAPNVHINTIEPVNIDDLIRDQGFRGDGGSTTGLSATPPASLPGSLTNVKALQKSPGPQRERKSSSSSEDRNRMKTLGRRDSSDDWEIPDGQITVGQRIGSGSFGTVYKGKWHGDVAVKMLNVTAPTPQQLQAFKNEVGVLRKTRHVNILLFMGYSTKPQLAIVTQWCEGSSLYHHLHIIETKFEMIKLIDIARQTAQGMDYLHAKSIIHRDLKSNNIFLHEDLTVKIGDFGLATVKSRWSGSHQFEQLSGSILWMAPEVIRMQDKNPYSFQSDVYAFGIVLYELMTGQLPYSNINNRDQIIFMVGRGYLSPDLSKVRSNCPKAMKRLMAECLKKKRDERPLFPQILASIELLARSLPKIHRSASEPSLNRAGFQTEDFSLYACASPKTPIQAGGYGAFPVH
Experimental: as §1, §2

[4] = target: T4, CAMKIIδ (Homo sapiens, UniProt Q13557); conditions: for competition: CAMKIIδ, 10 µM
T4 construct: purchased Ambit Biosciences (KINOMEscan)
T4 sequence (Q13557 whole entry): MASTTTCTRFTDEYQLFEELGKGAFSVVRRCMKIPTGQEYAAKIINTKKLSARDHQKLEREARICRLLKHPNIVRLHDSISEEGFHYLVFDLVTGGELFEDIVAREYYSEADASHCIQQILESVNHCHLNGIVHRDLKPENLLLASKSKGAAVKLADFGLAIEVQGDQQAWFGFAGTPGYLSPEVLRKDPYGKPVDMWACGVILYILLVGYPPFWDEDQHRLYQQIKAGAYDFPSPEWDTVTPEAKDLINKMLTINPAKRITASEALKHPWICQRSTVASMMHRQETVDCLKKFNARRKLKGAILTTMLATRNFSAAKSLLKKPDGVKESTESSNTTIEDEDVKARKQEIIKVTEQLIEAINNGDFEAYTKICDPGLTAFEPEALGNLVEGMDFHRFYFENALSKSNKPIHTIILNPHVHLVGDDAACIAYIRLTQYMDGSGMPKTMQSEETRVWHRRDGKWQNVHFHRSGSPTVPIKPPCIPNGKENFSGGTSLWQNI
Experimental: as §1, §2

[5] = target: T5, CDK2 (Homo sapiens, UniProt P24941); conditions: for % Competition: 10 µM
T5 construct: purchased Ambit Biosciences (KINOMEscan)
Experimental: as §1, §2

[6] = target: T6, CSK (Homo sapiens, UniProt P41240); conditions: for % Competition: 10 µM
T6 construct: purchased Ambit Biosciences (KINOMEscan)
Experimental: as §1, §2

[7] = target: T7, CSNK1G1 (Homo sapiens, UniProt Q9HCP0); conditions: for % Competition: 10 µM
T7 construct: purchased Ambit Biosciences (KINOMEscan)
T7 sequence (Q9HCP0 whole entry): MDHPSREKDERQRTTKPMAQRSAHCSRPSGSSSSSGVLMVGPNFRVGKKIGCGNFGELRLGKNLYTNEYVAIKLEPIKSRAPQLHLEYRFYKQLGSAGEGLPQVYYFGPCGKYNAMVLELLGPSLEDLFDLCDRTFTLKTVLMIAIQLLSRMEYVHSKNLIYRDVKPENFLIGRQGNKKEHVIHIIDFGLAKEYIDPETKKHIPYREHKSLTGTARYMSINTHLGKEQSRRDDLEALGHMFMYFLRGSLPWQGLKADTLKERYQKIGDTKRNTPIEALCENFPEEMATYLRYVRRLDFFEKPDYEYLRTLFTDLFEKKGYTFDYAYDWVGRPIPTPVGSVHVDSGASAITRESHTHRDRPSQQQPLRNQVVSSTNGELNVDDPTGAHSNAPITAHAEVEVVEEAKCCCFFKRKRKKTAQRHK
Experimental: as §1, §2

[8] = target: T8, EGFR(L747-E749del, A750P) (Homo sapiens, UniProt P00533, A750P/DEL747-749); conditions: for % Competition: 10 µM
T8 construct: purchased Ambit Biosciences (KINOMEscan)
Experimental: as §1, §2

[9] = target: T9, MEK3 (Homo sapiens, UniProt P46734)
T9 construct: purchased Ambit Biosciences (KINOMEscan)
T9 sequence (P46734 1-347): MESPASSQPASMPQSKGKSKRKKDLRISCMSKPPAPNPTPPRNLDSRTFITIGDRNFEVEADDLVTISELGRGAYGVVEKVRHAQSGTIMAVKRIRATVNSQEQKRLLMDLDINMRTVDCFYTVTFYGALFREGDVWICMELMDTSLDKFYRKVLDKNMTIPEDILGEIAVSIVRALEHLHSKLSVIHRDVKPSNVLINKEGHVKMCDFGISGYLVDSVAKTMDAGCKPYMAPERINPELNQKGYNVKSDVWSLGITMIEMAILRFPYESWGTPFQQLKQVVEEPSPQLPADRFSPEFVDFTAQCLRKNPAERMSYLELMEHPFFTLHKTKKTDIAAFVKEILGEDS
Experimental: as §1, §2

[10] = target: T10, PCTK2 (Homo sapiens, UniProt Q00537)
T10 construct: purchased Ambit Biosciences (KINOMEscan)
T10 sequence (Q00537 whole entry): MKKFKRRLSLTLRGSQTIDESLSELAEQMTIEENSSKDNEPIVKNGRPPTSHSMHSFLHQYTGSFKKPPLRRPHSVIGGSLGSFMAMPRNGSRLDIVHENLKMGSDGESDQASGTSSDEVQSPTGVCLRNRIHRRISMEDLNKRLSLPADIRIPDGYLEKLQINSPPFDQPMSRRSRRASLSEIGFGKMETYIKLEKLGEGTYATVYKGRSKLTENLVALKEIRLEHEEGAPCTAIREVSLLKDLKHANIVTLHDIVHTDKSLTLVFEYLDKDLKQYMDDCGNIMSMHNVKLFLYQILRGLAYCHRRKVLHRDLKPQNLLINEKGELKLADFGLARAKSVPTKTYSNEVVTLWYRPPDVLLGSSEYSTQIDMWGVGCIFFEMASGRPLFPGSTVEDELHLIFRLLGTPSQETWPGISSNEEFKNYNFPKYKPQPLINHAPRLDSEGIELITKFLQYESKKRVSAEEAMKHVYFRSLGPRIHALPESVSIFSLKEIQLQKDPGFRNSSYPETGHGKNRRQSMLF
Experimental: as §1, §2

[11] = target: T11, PRKCQ (Homo sapiens, UniProt Q04759)
T11 construct: purchased Ambit Biosciences (KINOMEscan)
T11 sequence (Q04759 whole entry): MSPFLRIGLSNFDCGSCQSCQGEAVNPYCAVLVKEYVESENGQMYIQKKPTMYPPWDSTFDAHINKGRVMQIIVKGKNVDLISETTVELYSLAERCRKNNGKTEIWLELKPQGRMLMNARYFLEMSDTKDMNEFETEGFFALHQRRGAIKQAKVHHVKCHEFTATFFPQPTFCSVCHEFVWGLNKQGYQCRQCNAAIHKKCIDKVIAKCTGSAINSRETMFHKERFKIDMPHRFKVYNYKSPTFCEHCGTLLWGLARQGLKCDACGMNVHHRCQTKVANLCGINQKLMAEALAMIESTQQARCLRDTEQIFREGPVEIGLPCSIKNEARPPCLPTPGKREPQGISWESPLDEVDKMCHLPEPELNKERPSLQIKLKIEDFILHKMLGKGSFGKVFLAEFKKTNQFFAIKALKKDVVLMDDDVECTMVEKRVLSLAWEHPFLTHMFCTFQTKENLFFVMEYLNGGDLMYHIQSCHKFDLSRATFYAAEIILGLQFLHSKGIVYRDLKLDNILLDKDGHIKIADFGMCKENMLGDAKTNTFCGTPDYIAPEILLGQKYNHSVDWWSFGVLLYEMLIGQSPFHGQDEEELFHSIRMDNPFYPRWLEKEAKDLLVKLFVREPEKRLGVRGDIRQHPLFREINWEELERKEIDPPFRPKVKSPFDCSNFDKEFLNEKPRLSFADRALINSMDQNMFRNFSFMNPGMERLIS
Experimental: as §1, §2

[12] = target: T12, TNNI3K (Homo sapiens, UniProt Q59H18)
T12 construct: purchased Ambit Biosciences (KINOMEscan)
T12 sequence (Q59H18 1-835): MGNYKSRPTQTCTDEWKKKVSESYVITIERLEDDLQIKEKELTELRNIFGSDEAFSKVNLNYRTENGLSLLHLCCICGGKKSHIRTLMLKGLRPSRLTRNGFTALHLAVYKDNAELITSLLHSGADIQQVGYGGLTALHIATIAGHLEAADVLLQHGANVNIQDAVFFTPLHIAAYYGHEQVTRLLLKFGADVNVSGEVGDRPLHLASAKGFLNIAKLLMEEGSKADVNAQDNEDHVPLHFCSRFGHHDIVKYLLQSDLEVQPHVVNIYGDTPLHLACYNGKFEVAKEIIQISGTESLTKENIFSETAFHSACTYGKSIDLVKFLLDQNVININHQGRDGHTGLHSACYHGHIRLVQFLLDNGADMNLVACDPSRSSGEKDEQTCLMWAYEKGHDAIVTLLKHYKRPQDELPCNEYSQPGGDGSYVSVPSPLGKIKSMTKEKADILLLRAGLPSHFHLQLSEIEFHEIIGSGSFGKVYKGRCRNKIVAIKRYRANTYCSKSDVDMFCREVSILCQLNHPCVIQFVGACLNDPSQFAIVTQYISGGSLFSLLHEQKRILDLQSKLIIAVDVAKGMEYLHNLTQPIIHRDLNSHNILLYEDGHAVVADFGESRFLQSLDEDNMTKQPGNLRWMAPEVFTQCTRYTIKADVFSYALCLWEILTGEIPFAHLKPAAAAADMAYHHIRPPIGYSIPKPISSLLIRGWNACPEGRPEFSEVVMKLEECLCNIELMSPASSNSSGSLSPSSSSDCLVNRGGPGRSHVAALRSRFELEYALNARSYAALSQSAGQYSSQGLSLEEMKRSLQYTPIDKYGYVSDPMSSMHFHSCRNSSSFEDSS
Experimental: as §1, §2

[13] = target: T13, YANK2 (Homo sapiens, UniProt Q9NY57)
T13 construct: purchased Ambit Biosciences (KINOMEscan)
T13 sequence (Q9NY57 whole entry): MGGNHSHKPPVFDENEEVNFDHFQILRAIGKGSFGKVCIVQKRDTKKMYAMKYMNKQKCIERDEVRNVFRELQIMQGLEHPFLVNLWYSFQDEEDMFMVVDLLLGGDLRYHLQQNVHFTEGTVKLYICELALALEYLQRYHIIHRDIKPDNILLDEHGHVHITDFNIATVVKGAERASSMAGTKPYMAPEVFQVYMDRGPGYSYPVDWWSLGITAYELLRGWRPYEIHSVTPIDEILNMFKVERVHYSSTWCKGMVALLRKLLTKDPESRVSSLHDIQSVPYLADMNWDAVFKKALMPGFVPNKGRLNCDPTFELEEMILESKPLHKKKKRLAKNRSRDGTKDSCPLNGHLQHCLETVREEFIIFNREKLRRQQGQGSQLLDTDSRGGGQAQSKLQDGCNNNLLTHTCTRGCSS
Experimental: as §1, §2

inhibition at 10 µM ([1]; ACVR1B, 10 µM, read-out: % Competition): 91% | inhibition at 10 µM ([2]; ADCK3, 10 µM, read-out: % Competition): 83% | inhibition at 10 µM ([3]; BRAF, 10 µM, read-out: % Competition): 97% | competition [4]: < 50% | % Competition [5]: 93% | % Competition [6]: 71% | % Competition [7]: 78% | % Competition [8]: 98% | inhibition at 10 µM ([9]; MEK3, 10 µM, read-out: % Competition): 99% | inhibition at 10 µM ([10]; PCTK2, 10 µM, read-out: % Competition): 78% | inhibition at 10 µM ([11]; PRKCQ (PKC θ), 10 µM, read-out: % Competition): 78% | inhibition at 10 µM ([12]; TNNI3K, 10 µM, read-out: % Competition): 67% | inhibition at 10 µM ([13]; YANK2, 10 µM, read-out: % Competition): 89%
Compound: Fc1ccc(-c2c(-c3ccncc3)[nH]c3nccnc23)cc1 [Compound 122]

Compound: CC(O)CNc1cc(-c2[nH]c3cccnc3c2-c2ccc(F)cc2)ccn1 (stereo not shown) [Compound 140]
inhibition at 10 µM ([1]; read-out: % Competition): < 50% | inhibition at 10 µM ([2]; read-out: % Competition): 90% | inhibition at 10 µM ([3]; read-out: % Competition): 76% | competition [4]: < 50% | % Competition [5]: <50% | % Competition [6]: <50% | % Competition [7]: 94% | % Competition [8]: 90% | inhibition at 10 µM ([9]; read-out: % Competition): < 50% | inhibition at 10 µM ([10]; read-out: % Competition): < 50% | % Competition ([11]; PRKCQ (PKC θ), 10 µM): <50% | inhibition at 10 µM ([11]; read-out: % Competition): < 50% | inhibition at 10 µM ([12]; read-out: % Competition): < 50% | inhibition at 10 µM ([13]; read-out: % Competition): < 50%

inhibition at 10 µM ([1]; ACVR1B, compound concentration 10 uM, read-out: Percent Competition): 91% | inhibition at 10 µM ([2]; ADCK3, compound concentration 10 uM, read-out: Percent Competition): 83% | inhibition at 10 µM ([3]; BRAF, compound concentration 10 uM, read-out: Percent Competition): 97% | inhibition at 10 µM ([4]; CAMK2D, compound concentration 10 uM, read-out: Percent Competition): < 50% | Percent Competition ([5]; compound concentration 10 uM): 93% | Percent Competition ([6]; compound concentration 10 uM): 71% | Percent Competition ([7]; compound concentration 10 uM): 78% | Percent Competition ([8]; compound concentration 10 uM): 98% | inhibition at 10 µM ([9]; MEK3, compound concentration 10 uM, read-out: Percent Competition): 99% | inhibition at 10 µM ([10]; PCTK2, compound concentration 10 uM, read-out: Percent Competition): 78% | inhibition at 10 µM ([11]; PRKCQ, compound concentration 10 uM, read-out: Percent Competition): 78% | inhibition at 10 µM ([12]; TNNI3K, compound concentration 10 uM, read-out: Percent Competition): 67% | inhibition at 10 µM ([13]; YANK2, compound concentration 10 uM, read-out: Percent Competition): 89%
Compound: Fc1ccc(-c2c(-c3ccncc3)[nH]c3nccnc23)cc1 [RO1155697-000-005]
